For ten compounds, GI50 and IC50 results are on record in patent US20220073496A1, “NOVEL QUINOLINE DERIVATIVE INHIBITOR” (Nanjing Transthera Biosciences Co., Ltd., priority 2018, published 2022).

The target in one assay is T1, Ba/F3 LMNA-NTRK1 cells (Homo sapiens, UniProt P04629).
T1 construct: fused on or other part: P02545 (Prelamin-A/C)
Description: Cell viability test (CTG), Ba/F3 LMNA-NTRK1. The assay is classed as cell-based. The note with it: NTRK1 wild type cell, 72 hours, read-out: IC50 Ba/F3 LMNA-NTRK1. Here is the method:
Assay 8: Cell viability test of the compounds of the present invention
Ba/F3 LMNA-NTRK1 is an NTRK1 wild type cell;
(§1) Test substances: the compounds of the present invention, wherein the structures thereof were as described above.
Test instrument: SpectraMax multi-label microplate reader.
Each cell was inoculated in a 96-well plate and adherent cells were cultivated overnight. Different concentrations of the compounds (9 dose groups, 3.16 times DMSO serial dilution) were added to give the final concentration of 0.1-1000 nM, and the final DMSO content was 1‰. The negative control wells contained the medium containing 1‰ DMSO. The cells were incubated at 37° C. in a condition of 5% CO2 and 95% humidity for 72 hours for use. An equal volume of CTG reagent was added to each well, and the cells were lysed by shaking for 5 minutes on an orbital shaker, and incubated for 20 minutes at room temperature to stabilize the cold light signal. The cold light signal was read with a microplate reader. Data were analyzed using GraphPad Prism 5.0 software, and data were fitted using nonlinear S-curve regression to derive a dose-response curve and thereby calculate IC50 values.

The target in another assay is T2, TrkB (h) (Homo sapiens, UniProt Q16620).
T2 construct: purchased
Description: Enzymatic activity test, TrkB (h). It counts as biochemical. The note with it: 10 μM [γ-33P]-ATP, 40 minutes, room temperature. As for the experimental part: (§2) Assay 4: Enzymatic Activity Test of the Compound of the Present Invention
(§3) Test substances: the compounds of the present invention, wherein the structures and preparations thereof were as described above.
(§4) Preparation of the Compound Stock Solution
(§5) The compound was dissolved in 100% DMSO to prepare a stock solution with a maximum concentration of 500 μM.
(§6) Preparation of the Compound Working Solution
(§7) The compound stock solution was diluted to final concentrations of 500, 150, 50, 15. 5, 1.5, 0.5, 0.15 and 0.05 μM to become the compound working solutions (50×).
(§8) Preparation of Different Enzyme Reaction Solutions
The TrkB (h) enzyme was dissolved in 8 mM MOPS (pH 7.0), 0.2 mM EDTA, and 0.1 mg/mL poly(Glu, Tyr) 4:1 to prepare an enzyme solution having a final concentration of 3.1 nM. The enzymatic reaction was activated by using 10 mM magnesium acetate and 10 μM [γ-^33P]-ATP to form an Mg/ATP mixed solution,
(§9) In a 384-well plate, the compound working solution was added to final concentrations of 10000, 3000, 1000, 300, 100, 30, 10, 3, and 1 nM. Then different enzyme reaction solutions prepared according to the above conditions were added. The incubation was carried out for 40 minutes at room temperature. The test was terminated by the addition of a 0.5% phosphoric acid solution. 10 μL of the reaction solution was taken and dropped to the P30 filter paper. The filter paper was washed 4 times with 0.425% phosphoric acid solution and once with methanol, and then placed on a scintillation counter. The […] IC50 values were calculated using GraphPad 5.0 software.

Another assay has as its target T3, TrkC (h) (Homo sapiens, UniProt Q16288).
T3 construct: purchased
Description: Enzymatic activity test, TrkC (h). It counts as biochemical. The settings on record: 10 μM [γ-33P]-ATP, 40 minutes, room temperature. As for the experimental part:
as §2, §3, §4, §5, §6, §7, §8
The TrkC (h) enzyme was dissolved in 8 mM MOPS (pH 7.0), 0.2 mM EDTA, and 500 μM GEEPLYWSFPAKKK to prepare an enzyme solution having a final concentration of 38 nM. The enzymatic reaction was activated by using 10 mM magnesium acetate and 10 μM [γ-^33P]-ATP to form an Mg/ATP mixed solution.
as §9

Another assay deals with T4, H1299 cell pAxl (Homo sapiens, UniProt P30530).
T4 construct: endogenous in cells; host or cells: H1299
T4 sequence (P30530 26-894): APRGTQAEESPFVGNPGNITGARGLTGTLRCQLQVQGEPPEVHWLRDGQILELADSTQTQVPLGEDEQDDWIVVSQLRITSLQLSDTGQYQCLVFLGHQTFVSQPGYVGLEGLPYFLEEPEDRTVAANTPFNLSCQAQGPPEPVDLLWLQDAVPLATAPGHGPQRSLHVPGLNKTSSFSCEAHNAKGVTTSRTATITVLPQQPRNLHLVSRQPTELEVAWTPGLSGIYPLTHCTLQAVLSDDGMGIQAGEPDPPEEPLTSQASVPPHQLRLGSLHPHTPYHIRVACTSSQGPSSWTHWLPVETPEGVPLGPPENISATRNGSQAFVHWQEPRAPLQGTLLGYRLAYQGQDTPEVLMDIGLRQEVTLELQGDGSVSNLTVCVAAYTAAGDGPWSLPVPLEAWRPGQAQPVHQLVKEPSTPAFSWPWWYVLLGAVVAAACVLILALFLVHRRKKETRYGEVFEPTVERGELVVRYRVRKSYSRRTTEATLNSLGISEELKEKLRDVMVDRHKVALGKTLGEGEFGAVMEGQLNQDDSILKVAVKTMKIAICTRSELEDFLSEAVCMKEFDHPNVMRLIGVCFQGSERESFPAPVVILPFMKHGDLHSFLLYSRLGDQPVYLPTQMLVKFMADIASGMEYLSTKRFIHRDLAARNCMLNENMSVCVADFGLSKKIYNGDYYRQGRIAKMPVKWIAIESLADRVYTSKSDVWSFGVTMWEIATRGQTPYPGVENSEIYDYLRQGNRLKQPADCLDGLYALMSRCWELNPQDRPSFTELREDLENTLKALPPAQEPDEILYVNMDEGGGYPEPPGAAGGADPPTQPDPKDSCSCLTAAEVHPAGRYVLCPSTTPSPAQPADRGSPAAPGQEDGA
Description: Inhibitory activity on the cell pAxl (Western Blot). It counts as cell-based. The note with it: H1299 cells, compound 1.1, 3.3, 10, 30 nM, hGAS6 200 ng/mL. As for the experimental part:
Assay 5: Test for Inhibitory Activities of the Compounds of the Present Invention on the Cell pAxl
H1299 is a non-small cell lung cancer cell.
as §1
Test equipment: protein electrophoresis apparatus (manufactured by Bio Rad), transfer unit (manufactured by Bio Rad), exposure unit (manufactured by Tanon), CO2, cell incubator (manufactured by Thermo).
The H1299 cells were inoculated in a 6-well plate (containing 10% FBS 1640 medium, 5×10^5 cells per well), and adherent cells were cultivated at 37° C. in a 5% CO2 condition for 18 hours. The cells were starved overnight. Different concentrations of compounds were added. The final compound concentrations were 1.1, 3.3, 10, and 30 nM, and the final DMSO content was 1‰. The negative control wells contained the medium containing 1‰ DMSO. After incubating at 37° C. in a 5% CO2 condition for 60 minutes, hGAS6 (R&D, final concentration 200 ng/mL) was added to each well. After further incubating for 60 minutes, the cell total protein was extracted for Western Blot and the […] values were calculated using GraphPad 5.0 software. The inhibitory activity of the compound on the cell pAxl was examined.
(In general: A western blot detects proteins with antibodies after separation by electrophoresis.)

A value given as a limit tells only on which side of the number the result lay.

T1 sequence (P04629 whole entry, change not shown, the tested form may be a part): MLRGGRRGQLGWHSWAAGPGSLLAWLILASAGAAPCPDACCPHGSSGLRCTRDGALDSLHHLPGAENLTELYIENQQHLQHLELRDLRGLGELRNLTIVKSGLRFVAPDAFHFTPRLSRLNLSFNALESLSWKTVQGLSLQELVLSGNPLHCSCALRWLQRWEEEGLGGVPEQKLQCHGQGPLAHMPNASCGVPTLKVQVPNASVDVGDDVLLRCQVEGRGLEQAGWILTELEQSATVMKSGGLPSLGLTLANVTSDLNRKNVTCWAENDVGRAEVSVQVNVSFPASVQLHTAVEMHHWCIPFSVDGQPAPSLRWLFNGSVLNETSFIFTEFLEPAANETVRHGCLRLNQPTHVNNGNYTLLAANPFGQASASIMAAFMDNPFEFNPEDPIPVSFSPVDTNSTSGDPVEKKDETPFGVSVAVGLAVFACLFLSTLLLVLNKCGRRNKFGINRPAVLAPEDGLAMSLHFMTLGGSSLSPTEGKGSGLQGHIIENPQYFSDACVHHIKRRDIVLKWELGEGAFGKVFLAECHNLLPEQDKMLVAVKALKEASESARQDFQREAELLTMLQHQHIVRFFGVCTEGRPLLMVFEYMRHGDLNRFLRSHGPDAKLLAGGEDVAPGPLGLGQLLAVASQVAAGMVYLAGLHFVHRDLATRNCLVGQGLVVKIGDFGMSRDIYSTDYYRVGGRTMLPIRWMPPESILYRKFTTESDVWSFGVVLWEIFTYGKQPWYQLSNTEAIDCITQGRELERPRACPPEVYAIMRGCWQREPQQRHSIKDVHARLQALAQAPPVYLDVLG
T2 sequence (Q16620 32-822): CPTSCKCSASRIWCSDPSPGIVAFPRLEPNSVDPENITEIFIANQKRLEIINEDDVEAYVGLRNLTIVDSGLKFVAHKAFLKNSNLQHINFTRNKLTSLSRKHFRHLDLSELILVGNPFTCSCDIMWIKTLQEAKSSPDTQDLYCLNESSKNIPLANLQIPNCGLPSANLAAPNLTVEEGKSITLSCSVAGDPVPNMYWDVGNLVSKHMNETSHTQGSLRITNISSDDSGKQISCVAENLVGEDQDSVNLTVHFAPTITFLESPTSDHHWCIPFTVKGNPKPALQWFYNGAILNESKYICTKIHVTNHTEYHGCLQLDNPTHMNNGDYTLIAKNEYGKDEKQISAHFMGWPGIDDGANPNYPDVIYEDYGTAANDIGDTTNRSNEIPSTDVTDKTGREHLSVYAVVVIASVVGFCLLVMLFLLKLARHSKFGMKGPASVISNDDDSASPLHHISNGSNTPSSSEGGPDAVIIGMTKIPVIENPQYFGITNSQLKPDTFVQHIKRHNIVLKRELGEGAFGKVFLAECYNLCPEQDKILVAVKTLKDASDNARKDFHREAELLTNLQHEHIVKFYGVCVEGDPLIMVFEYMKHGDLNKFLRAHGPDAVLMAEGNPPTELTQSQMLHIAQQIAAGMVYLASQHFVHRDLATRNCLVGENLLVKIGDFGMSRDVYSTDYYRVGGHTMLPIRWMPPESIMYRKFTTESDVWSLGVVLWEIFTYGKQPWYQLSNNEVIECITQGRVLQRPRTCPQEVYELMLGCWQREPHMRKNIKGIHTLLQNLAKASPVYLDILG
T3 sequence (Q16288 32-839): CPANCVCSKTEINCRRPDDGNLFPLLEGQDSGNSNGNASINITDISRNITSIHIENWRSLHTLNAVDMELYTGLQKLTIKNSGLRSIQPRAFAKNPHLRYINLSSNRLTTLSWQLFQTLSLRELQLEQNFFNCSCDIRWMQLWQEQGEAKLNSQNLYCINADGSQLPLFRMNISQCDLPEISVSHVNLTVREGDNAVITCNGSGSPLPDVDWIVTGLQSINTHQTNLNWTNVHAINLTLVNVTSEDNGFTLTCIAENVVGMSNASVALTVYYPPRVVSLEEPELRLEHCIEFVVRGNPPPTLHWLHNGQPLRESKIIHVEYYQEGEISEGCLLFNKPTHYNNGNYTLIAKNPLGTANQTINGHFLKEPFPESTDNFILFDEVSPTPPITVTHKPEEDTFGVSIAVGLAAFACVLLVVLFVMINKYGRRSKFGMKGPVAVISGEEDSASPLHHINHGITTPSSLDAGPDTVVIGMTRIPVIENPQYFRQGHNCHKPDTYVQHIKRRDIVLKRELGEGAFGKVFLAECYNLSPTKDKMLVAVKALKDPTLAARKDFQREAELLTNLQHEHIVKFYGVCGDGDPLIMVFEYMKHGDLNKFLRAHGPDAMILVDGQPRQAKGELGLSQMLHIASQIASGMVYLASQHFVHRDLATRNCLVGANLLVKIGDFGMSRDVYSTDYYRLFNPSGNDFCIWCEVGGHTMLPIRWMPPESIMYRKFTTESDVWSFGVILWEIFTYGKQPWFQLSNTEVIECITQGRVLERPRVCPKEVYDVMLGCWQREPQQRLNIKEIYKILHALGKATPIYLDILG

By IC50 is commonly meant the concentration that inhibits the measured activity by half. Read a high IC50 as lower potency. On to `COc1cc2nccc(Oc3cnc(NC(=O)c4nn(C5CC5)cc(-c5ccc(F)cc5)c4=O)nc3)c2cc1OC` [Compound 33], for which, at Ba/F3 LMNA-NTRK1 cells, the GI50 is 73 nM. The figures for the IC50 at TrkB (h), against TrkC (h) and against H1299 cell pAxl were 8 nM, 5 nM and below 1.1 nM, respectively.
For `COc1cc2nccc(Oc3ccc(NC(=O)c4cn(C(C)C)nc(-c5ccc(F)cc5)c4=O)cn3)c2cc1OC` [Compound 38, N-(6-((6,7-dimethoxyquinolin-4-yl)oxy)pyridin-3-yl)-6-para-fluorophenyl-2-isopropyl-5-oxo-2,5-dihydropyridazine-4-carboxamide], in that order: 55.1 nM, 11 nM, 8 nM and 3.3 nM.
Turning to `COc1cc2nccc(Oc3ncc(NC(=O)c4nn(C(C)C)cc(-c5ccc(F)cc5)c4=O)cn3)c2cc1OC` [Compound 34, N-(2-((6,7-dimethoxyquinolin-4-yl)oxy)pyrimidine-5-yl)-5-para-fluorophenyl-1-isopropyl-4-oxo-1,4-dihydropyridazine-3-carboxamide], at Ba/F3 LMNA-NTRK1 cells, the GI50 came out at 14.3 nM. In addition, the IC50 is 3 nM against TrkB (h), 6 nM against TrkC (h) and below 1.1 nM against H1299 cell pAxl.
Regarding `COc1cc2nccc(Oc3ncc(NC(=O)c4nn(C5CC5)cc(-c5ccc(F)cc5)c4=O)cn3)c2cc1OC` [Compound 37, 1-cyclopropyl-N-(2-((6,7-dimethoxyquinolin-4-yl)oxy)pyrimidine-5-yl)-5-para-fluorophenyl-4-oxo-1,4-dihydropyridazine-3-carboxamide], the IC50 against TrkB (h) was 6 nM; at TrkC (h), 4 nM; at H1299 cell pAxl, below 1.1 nM.
Turning to `COc1cc2nccc(Oc3ccc(NC(=O)c4nn(C(C)C)cc(-c5ccc(F)cc5)c4=O)nc3)c2cc1OC` [Compound 15, N-(5-((6,7-dimethoxyquinolin-4-yl)oxy)pyridin-2-yl)-5-(4-fluorophenyl)-1-isopropyl-4-oxo-1,4-dihydropyridazine-3-carboxamide], the GI50 on Ba/F3 LMNA-NTRK1 cells was determined as 3.28 nM. Moreover, the IC50 against TrkB (h) is 3 nM; on TrkC (h) it was 6 nM; against H1299 cell pAxl, below 1.1 nM.
The corresponding values for `COc1cc2nccc(Oc3ccc(NC(=O)c4nn(C5CC5)cc(-c5ccc(F)cc5)c4=O)nc3)c2cc1OC` [Compound 31] are 17.3 nM, 3 nM, 3 nM and below 1.1 nM.
On to `COc1cc2nccc(Oc3ccc(NC(=O)c4nn(C5CC5)cc(-c5ccc(F)cc5)c4=O)cn3)c2cc1OC` [Compound 36], for which the IC50 against TrkB (h) is 4 nM; on TrkC (h) it was 3 nM; against H1299 cell pAxl, below 1.1 nM.
Take `COc1cc2nccc(Oc3ncc(NC(=O)c4cn(C(C)C)nc(-c5ccc(F)cc5)c4=O)cn3)c2cc1OC` [Compound 40, N-(2-((6,7-dimethoxyquinolin-4-yl)oxy)pyrimidine-5-yl)-6-(4-fluorophenyl)-2-isopropyl-5-oxo-2,5-dihydropyridazine-4-carboxamide]: the GI50 at Ba/F3 LMNA-NTRK1 cells stood at 52.1 nM. For the same compound, the IC50 came to 6 nM at TrkB (h), 14 nM at TrkC (h) and 10 nM against H1299 cell pAxl.
The corresponding values for `COc1cc2nccc(Oc3cnc(NC(=O)c4cn(C(C)C)nc(-c5ccc(F)cc5)c4=O)nc3)c2cc1OC` [Compound 39, N-(5-((6,7-dimethoxyquinolin-4-yl)oxy)pyrimidine-2-yl)-6-(4-fluorophenyl)-2-isopropyl-5-oxo-2,5-dihydropyridazine-4-carboxamide] are 42.4 nM, 17 nM, 10 nM and 3.3 nM.
`COc1cc2nccc(Oc3ccc(NC(=O)c4cn(C(C)C)cc(-c5ccc(F)cc5)c4=O)nc3)c2cc1OC` [Compound 14, N-(5-((6,7-dimethoxyquinolin-4-yl)oxy)pyridin-2-yl)-5-(4-fluorophenyl)-1-isopropyl-4-oxo-1,4-dihydropyridin-3-carboxamide] displayed an IC50 at H1299 cell pAxl below 1.1 nM.
